The values that follow come from patent US20250163066A1, “PROTACs of MALT1” (TEGID THERAPEUTICS, INC., priority 2022, published 2025).

In the assay the target is MALT1 (Homo sapiens (Human), UniProt Q9UDY8). In words: MALT1 enzymatic activity inhibition (fluorescence, Ac-LRSR-AMC substrate). It is filed as biochemical. Particulars: recombinant MALT1 1.5 ng/μl, Ac-LRSR-AMC 1 μM. Summed up: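 Recombinant human MALT1 (1.5 ng/μl final) preincubated 10 min at rt with compounds in 50 mM HEPES pH 7.2-7.4, 100 mM NaCl, 900 mM sodium citrate, 10 mM DTT; 1 μM Ac-LRSR-AMC then added. AMC fluorescence read at start and after 30 min 37 °C plus 30 min rt; difference gives signal, % inhibition fitted to IC50.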
Chain of MALT1 (Q9UDY8 whole entry): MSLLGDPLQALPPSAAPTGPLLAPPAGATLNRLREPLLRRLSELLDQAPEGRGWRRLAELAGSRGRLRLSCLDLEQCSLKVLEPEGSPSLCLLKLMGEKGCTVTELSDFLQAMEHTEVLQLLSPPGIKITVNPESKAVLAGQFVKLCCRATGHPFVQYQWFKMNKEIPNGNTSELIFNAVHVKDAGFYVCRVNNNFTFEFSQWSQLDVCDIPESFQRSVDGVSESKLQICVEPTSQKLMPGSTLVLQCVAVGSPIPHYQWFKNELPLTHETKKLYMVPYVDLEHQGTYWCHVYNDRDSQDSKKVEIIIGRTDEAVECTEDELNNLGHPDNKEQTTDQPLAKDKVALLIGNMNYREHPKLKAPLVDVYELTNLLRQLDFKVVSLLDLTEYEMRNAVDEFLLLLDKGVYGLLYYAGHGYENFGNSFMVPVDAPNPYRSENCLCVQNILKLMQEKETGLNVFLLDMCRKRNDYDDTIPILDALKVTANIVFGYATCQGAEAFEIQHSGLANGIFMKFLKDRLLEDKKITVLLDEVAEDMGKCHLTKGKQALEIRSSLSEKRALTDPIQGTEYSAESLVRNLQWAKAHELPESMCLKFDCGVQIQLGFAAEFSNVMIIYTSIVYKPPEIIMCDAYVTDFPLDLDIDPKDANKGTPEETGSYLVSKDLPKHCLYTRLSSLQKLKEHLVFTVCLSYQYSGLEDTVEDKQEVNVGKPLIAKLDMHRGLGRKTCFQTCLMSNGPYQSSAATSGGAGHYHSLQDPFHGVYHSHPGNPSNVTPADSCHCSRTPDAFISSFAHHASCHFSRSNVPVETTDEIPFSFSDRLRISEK

As to `Cc1cc(NC(=O)Nc2cnc3ccnn3c2C(C)C)cnc1-c1noc(CCCCC(=O)N2CCN(c3ccc4c(c3)CN(C3CCC(=O)N(COC(=O)C(C)(C)C)C3=O)C4=O)CC2)n1` (centres unmarked) [Compound 130, [3-[5-[4-[5-[3-[5-[(7-isopropylpyrazolo[1,5-a]pyrimidin-6-yl)carbamoylamino]-3-methyl-2-pyridyl]-1,2,4-oxadiazol-5-yl]pentanoyl]piperazin-1-yl]-1-oxo-isoindolin-2-yl]-2,6-dioxo-1-piperidyl]methyl 2,2-dimethylpropanoate], the EC50 is at most 0.2 µM. Regarding `Cc1cc(NC(=O)Nc2cnc3ccnn3c2C2CCCCC2)cnc1-c1noc(CCCC(=O)N2CCN(c3ccc4c(c3)CN(C3CCC(=O)NC3=O)C4=O)CC2)n1` (centres unmarked) [Compound 126, 1-(7-cyclohexylpyrazolo[1,5-a]pyrimidin-6-yl)-3-[6-[5-[4-[4-[2-(2,6-dioxo-3-piperidyl)-1-oxo-isoindolin-5-yl]piperazin-1-yl]-4-oxo-butyl]-1,2,4-oxadiazol-3-yl]-5-methyl-3-pyridyl]urea], the EC50 fell in the range of 0.5 to 1 µM. The result for `Cc1cc(NC(=O)Nc2cnc3ccnn3c2C2CC2)cnc1-c1noc(CCCCC(=O)N2CCN(c3ccc4c(c3)CN(C3CCC(=O)NC3=O)C4=O)CC2)n1` (centres unmarked) [Compound 169, 1-(7-cyclopropylpyrazolo[1,5-a]pyrimidin-6-yl)-3-[6-[5-[5-[4-[2-(2,6-dioxo-3-piperidyl)-1-oxo-isoindolin-5-yl]piperazin-1-yl]-5-oxo-pentyl]-1,2,4-oxadiazol-3-yl]-5-methyl-3-pyridyl]urea] reads at most 0.2 µM; that for `Cc1cc(NC(=O)Nc2cnc3ccnn3c2C2CCCC2)cnc1-c1noc(CCCCCC(=O)Nc2ccc3c(c2)CN(C2CCC(=O)NC2=O)C3=O)n1` (centres unmarked) [Compound 61, 6-[3-[5-[(7-cyclopentylpyrazolo[1,5-a]pyrimidin-6-yl)carbamoylamino]-3-methyl-2-pyridyl]-1,2,4-oxadiazol-5-yl]-N-[2-(2,6-dioxo-3-piperidyl)-1-oxo-isoindolin-5-yl]hexanamide], at most 0.2 µM.

As to `Cc1cc(NC(=O)Nc2cnc3ccnn3c2C2CCCC2)cnc1-c1noc(CCCCCCN2CCN(c3ccc4c(c3)CN(C3CCC(=O)NC3=O)C4=O)CC2)n1` (centres unmarked) [Compound 68, 1-(7-cyclopentylpyrazolo[1,5-a]pyrimidin-6-yl)-3-[6-[5-[6-[4-[2-(2,6-dioxo-3-piperidyl)-1-oxo-isoindolin-5-yl]piperazin-1-yl]hexyl]-1,2,4-oxadiazol-3-yl]-5-methyl-3-pyridyl]urea], the EC50 is at most 0.2 µM. The result for `O=C(CCOCCN1CCN(c2ccc3c(c2)CN(C2CCC(=O)NC2=O)C3=O)CC1)NCCNC(=O)[C@@H]1C[C@@H](O)CN1C(=O)Nc1cnc2ccnn2c1C1CCCC1` (stereo partly drawn) [Compound 46, (2S,4R)-N1-(7-cyclopentylpyrazolo[1,5-a]pyrimidin-6-yl)-N2-[2-[3-[2-[4-[2-(2,6-dioxo-3-piperidyl)-1-oxo-isoindolin-5-yl]piperazin-1-yl]ethoxy]propanoylamino]ethyl]-4-hydroxy-pyrrolidine-1,2-dicarboxamide] reads above 5 µM. The result for `CC(C)c1c(NC(=O)Nc2cnc(-c3noc(CCCC(=O)N4CCN(c5ccc6c(c5)CN(C5CCC(=O)N(C)C5=O)C6=O)CC4)n3)c(Cl)c2)cnc2ccnn12` (centres unmarked) [Compound 135, 1-[5-chloro-6-[5-[4-[4-[2-(1-methyl-2,6-dioxo-3-piperidyl)-1-oxo-isoindolin-5-yl]piperazin-1-yl]-4-oxo-butyl]-1,2,4-oxadiazol-3-yl]-3-pyridyl]-3-(7-isopropylpyrazolo[1,5-a]pyrimidin-6-yl)urea] reads at most 0.2 µM. The same measure for `Cc1cc(NC(=O)Nc2cnc3ccnn3c2C2CCCC2)cnc1-c1noc(CCCCCN2CCN(c3ccc4c(c3)CN(C3CCC(=O)N(C)C3=O)C4=O)CC2)n1` (centres unmarked) [Compound 64, 1-(7-cyclopentylpyrazolo[1,5-a]pyrimidin-6-yl)-3-[5-methyl-6-[5-[5-[4-[2-(1-methyl-2,6-dioxo-3-piperidyl)-1-oxo-isoindolin-5-yl]piperazin-1-yl]pentyl]-1,2,4-oxadiazol-3-yl]-3-pyridyl]urea]: at most 0.2 µM; for `Cc1cc(NC(=O)Nc2cnc3ccnn3c2C2CCCC2)cnc1-c1cn(CCCCCCC(=O)N2CCN(c3ccc4c(c3)CN(C3CCC(=O)NC3=O)C4=O)CC2)nn1` (centres unmarked) [Compound 6, 1-(7-cyclopentylpyrazolo[1,5-a]pyrimidin-6-yl)-3-[6-[1-[7-[4-[2-(2,6-dioxo-3-piperidyl)-1-oxo-isoindolin-5-yl]piperazin-1-yl]-7-oxo-heptyl]triazol-4-yl]-5-methyl-3-pyridyl]urea]: 0.5 to 1 µM. For `Cc1cc(NC(=O)Nc2cnc3ccnn3c2C2CCCC2)cnc1-c1noc(CCCCC(=O)Nc2ccc(C3CCC(=O)NC3=O)cc2)n1` (centres unmarked) [Compound 101, 5-[3-[5-[(7-cyclopentylpyrazolo[1,5-a]pyrimidin-6-yl)carbamoylamino]-3-methyl-2-pyridyl]-1,2,4-oxadiazol-5-yl]-N-[4-(2,6-dioxo-3-piperidyl)phenyl]pentanamide], the concentration giving a half-maximal response (EC50) was 0.2 to 0.5 µM. `O=C(CCOCCN1CCN(c2ccc3c(c2)CN(C2CCC(=O)NC2=O)C3=O)CC1)NCCOc1ncc(Cl)cc1NC(=O)Nc1cnc2ccnn2c1C1CCCCC1` (centres unmarked) [Compound 44]: the concentration for a half-maximal effect (EC50) was 1 to 5 µM. The result for `O=C1CCC(N2Cc3cc(N4CCN(C(=O)CCCCn5cc(NC(=O)Nc6cnc7ccnn7c6C6CCC6)c(C(F)(F)F)n5)CC4)ccc3C2=O)C(=O)N1` (centres unmarked) [Compound 152, 1-(7-cyclobutylpyrazolo[1,5-a]pyrimidin-6-yl)-3-[1-[5-[4-[2-(2,6-dioxo-3-piperidyl)-1-oxo-isoindolin-5-yl]piperazin-1-yl]-5-oxo-pentyl]-3-(trifluoromethyl)pyrazol-4-yl]urea] reads 1 to 5 µM.

Take `CC(C)(C)C(=O)OCN1C(=O)CCC(N2Cc3cc(N4CCN(C(=O)CCCCCc5nc(-c6ncc(NC(=O)Nc7cnc8ccnn8c7C7CCCC7)cc6Cl)no5)CC4)ccc3C2=O)C1=O` (centres unmarked) [Compound 70, [3-[5-[4-[6-[3-[3-chloro-5-[(7-cyclopentylpyrazolo[1,5-a]pyrimidin-6-yl)carbamoylamino]-2-pyridyl]-1,2,4-oxadiazol-5-yl]hexanoyl]piperazin-1-yl]-1-oxo-isoindolin-2-yl]-2,6-dioxo-1-piperidyl]methyl 2,2-dimethylpropanoate]: the EC50 is at most 0.2 µM. For `Cc1cc(NC(=O)Nc2cnc3ccnn3c2C2CCCO2)cnc1N1CCN(C(=O)CCOCCN2CCN(c3ccc4c(c3)CN(C3CCC(=O)NC3=O)C4=O)CC2)CC1` (centres unmarked) [Compound 35, 1-[6-[4-[3-[2-[4-[2-(2,6-dioxo-3-piperidyl)-1-oxo-isoindolin-5-yl]piperazin-1-yl]ethoxy]propanoyl]piperazin-1-yl]-5-methyl-3-pyridyl]-3-(7-tetrahydrofuran-2-ylpyrazolo[1,5-a]pyrimidin-6-yl)urea], the EC50 is above 5 µM. As for `O=C1CCC(N2Cc3cc(N4CCN(CCCCCc5nc(-c6ncc(NC(=O)Nc7cnc8ccnn8c7C7CCCCC7)cc6Cl)no5)CC4)ccc3C2=O)C(=O)N1` (centres unmarked) [Compound 99, 1-[5-chloro-6-[5-[5-[4-[2-(2,6-dioxo-3-piperidyl)-1-oxo-isoindolin-5-yl]piperazin-1-yl]pentyl]-1,2,4-oxadiazol-3-yl]-3-pyridyl]-3-(7-cyclohexylpyrazolo[1,5-a]pyrimidin-6-yl)urea], the EC50 is at most 0.2 µM. On to `Cc1cc(NC(=O)Nc2cnc3nccn3c2C2CCCC2)cnc1-c1noc(CCCCCC(=O)N2CCN(c3ccc4c(c3)CN(C3CCC(=O)NC3=O)C4=O)CC2)n1` (centres unmarked) [Compound 9, 1-(5-cyclopentylimidazo[1,2-a]pyrimidin-6-yl)-3-[6-[5-[6-[4-[2-(2,6-dioxo-3-piperidyl)-1-oxo-isoindolin-5-yl]piperazin-1-yl]-6-oxo-hexyl]-1,2,4-oxadiazol-3-yl]-5-methyl-3-pyridyl]urea], for which the EC50 is above 5 µM. The result for `CC(C)c1c(NC(=O)Nc2cnc(-c3noc(CCCCC(=O)N4CCN(c5ccc6c(c5)CN(C5CCC(=O)N(C)C5=O)C6=O)CC4)n3)c(Cl)c2)cnc2ccnn12` (centres unmarked) [Compound 136, 1-[5-chloro-6-[5-[5-[4-[2-(1-methyl-2,6-dioxo-3-piperidyl)-1-oxo-isoindolin-5-yl]piperazin-1-yl]-5-oxo-pentyl]-1,2,4-oxadiazol-3-yl]-3-pyridyl]-3-(7-isopropylpyrazolo[1,5-a]pyrimidin-6-yl)urea] reads at most 0.2 µM.

In the case of `O=C1CCC(N2Cc3cc(N4CCN(C(=O)CCCCCc5nc(-c6ncc(NC(=O)Nc7cnc8ccnn8c7C7CCCC7)cc6F)no5)CC4)ccc3C2=O)C(=O)N1` (centres unmarked) [Compound 74, 1-(7-cyclopentylpyrazolo[1,5-a]pyrimidin-6-yl)-3-[6-[5-[6-[4-[2-(2,6-dioxo-3-piperidyl)-1-oxo-isoindolin-5-yl]piperazin-1-yl]-6-oxo-hexyl]-1,2,4-oxadiazol-3-yl]-5-fluoro-3-pyridyl]urea], the EC50 was in the range of 0.2 to 0.5 µM.

Regarding `Cc1cc(NC(=O)Nc2cnc3ccnn3c2C2CCCC2)cnc1-c1noc(CCCCC(=O)Nc2cccc(C3CCC(=O)NC3=O)c2)n1` (centres unmarked) [Compound 100, 5-[3-[5-[(7-cyclopentylpyrazolo[1,5-a]pyrimidin-6-yl)carbamoylamino]-3-methyl-2-pyridyl]-1,2,4-oxadiazol-5-yl]-N-[3-(2,6-dioxo-3-piperidyl)phenyl]pentanamide], the EC50 lay within 0.2 to 0.5 µM. Turning to `Cc1cc2ncc(NC(=O)Nc3cnc(-c4noc(CCCCCCN5CCN(c6ccc7c(c6)CN(C6CCC(=O)NC6=O)C7=O)CC5)n4)c(C)c3)c(C3CCCO3)n2n1` (centres unmarked) [Compound 73, 1-[6-[5-[6-[4-[2-(2,6-dioxo-3-piperidyl)-1-oxo-isoindolin-5-yl]piperazin-1-yl]hexyl]-1,2,4-oxadiazol-3-yl]-5-methyl-3-pyridyl]-3-(2-methyl-7-tetrahydrofuran-2-yl-pyrazolo[1,5-a]pyrimidin-6-yl)urea], the EC50 is at most 0.2 µM.

In general, EC50 refers to the concentration needed to bring the measured effect to its halfway point.
